What was measured:
[1] = system: RAW264.7; assay: Antiinflammatory activity against mouse RAW264.7 cells assessed as inhibition of LPS-induced TNF-alpha secretion after 24 hrs by ELISA; format: functional, cell-based; conditions: RAW264.7, 24 h
[2] = system: RAW264.7; assay: Cytotoxicity against mouse RAW264.7 cells assessed as reduction in cell viability at 50 uM by MTT assay; format: cell-based; conditions: raw264.7, 50 µM
[3] = system: RAW264.7; assay: Antiinflammatory activity against mouse RAW264.7 cells assessed as inhibition of LPS-induced NO production incubated for 24 hrs by Griess reagent-based assay; format: functional, cell-based; conditions: RAW264.7, 24 h
[4] = system: RAW264.7; assay: Antiinflammatory activity against mouse RAW264.7 cells assessed as inhibition of LPS-induced IL-6 secretion after 24 hrs by ELISA; format: functional, cell-based; conditions: RAW264.7, 24 h

| Structure (SMILES) | IC50 [1] | Activity [2] | IC50 [3] | IC50 [4] |
| --- | --- | --- | --- | --- |
| COc1ccc([C@H](/C=C/c2ccc(O)cc2)c2cc(-c3coc4cc(OC)cc(O)c4c3=O)c(O)cc2O)c(OC)c1 | 11.4 µM | Non-Toxic | 25.7 µM | > 50 µM |
| C[C@H]1[C@H](C)CC[C@]2(C=O)CC[C@]3(C)C(=CC[C@@H]4[C@@]5(C)CC[C@H](O)C(C)(C)[C@@H]5CC[C@]43C)[C@H]12 [OLEANOALDEHYDE] | – | Non-Toxic | 18.6 µM | – |
| C[C@@H]1C[C@H]2[C@@H]3CCC4=CC(=O)C=C[C@]4(C)[C@@]3(F)[C@@H](O)C[C@]2(C)[C@@]1(O)C(=O)CO [DEXAMETHASONE] | 6.1 µM | – | 6 µM | 8.4 µM |
| COc1ccc2c(c1)O[C@@H](c1ccc(OC)cc1OC)[C@H](Cc1ccc(O)cc1)[C@H]2/C=C/c1ccc(O)cc1 | 26.7 µM | Non-Toxic | 25.6 µM | 31.4 µM |
| COc1ccc(/C=C/[C@H](c2ccc(O)cc2)c2cc(-c3coc4cc(OC)cc(O)c4c3=O)c(O)cc2O)c(OC)c1 | 20.5 µM | Non-Toxic | 4.1 µM | 32.6 µM |
| COc1ccc2c(c1)O[C@@]1(/C=C/c3ccc(O)cc3)c3ccc(OC)cc3O[C@H]2[C@H]1Cc1ccc(O)cc1 | 14.7 µM | Non-Toxic | 5.2 µM | 26.8 µM |
